Measurements as given in patent US6770599B2, “Tetrazole derivatives” (Bayer CropScience KK, priority 2000, dated 2004).

Assays:
[1] = test system: Rotala indica (indian toothcup); assay: Test Example 5: synergistic action by water surface application, ROTIN; type: in vivo; details: 75 g a.i./ha, run6, 4 weeks after application
Description: (§1) Test for Synergistic Action by Water Sureface Application
(§2) In a greenhouse, paddy soil was filled in pots (250 cm^2), and seeds of weed (barnyardgrass, bulrush, monochoria, falsepimpemel, indian toothcup, waterwort and flatstage) were inoculated in the surface layer of the soil in the pots under wet conditions and covered with soil. All of the weed species were individually inoculated in each pot. Each pot was watered to 2 cm in depth and the depth was kept during the test period. When the weeds grew up to 1.5-2.2 leaf stage (or pair), a predetermined amount of the compound as a testing solution prepared in the same manner as the above-mentioned Test Example 4 was applied to the pots by water surface treatment method. The herbicidal effect was evaluated at 4 weeks after the application on the same scale as in thetest method of Test Example 4.
(§3) Synergistic action of Test Example 4 and Test Example 5 were evaluated by Colby's equation. [formula]
(§4) E: expected herbicidal activity at p+q g/ha
(§5) X: the percentage of herbicidal activity at p g/ha
(§6) Y: the percentage of herbicidal activity at q g/ha

[2] = test system: Lindernia pyridaria (flasepimpernel); assay: Test Example 5: synergistic action by water surface application, LIDPY; type: in vivo; details: 75 g a.i./ha, run6, 4 weeks after application
Description: as §1, §2, §3, §4, §5, §6

Compound	Herbicidal efficacy, known herbicide [1] [%]	Herbicidal efficacy, known herbicide [2] [%]	melting point [°C]
CCC1(CC2(c3cccc(Cl)c3)CO2)C(=O)c2ccccc2C1=O (racemic) [G, (RS)-2-[2-(3-chlorophenyl)2,3-epoxypropyl]-2-ethylindan-1,3-dione]	60	60	–
CCn1nnnc1SCc1c(S(C)(=O)=O)ccc(C(=O)C2C(=O)CCCC2=O)c1Cl	–	–	67 to 71
Cn1nnnc1SCc1c(S(C)(=O)=O)ccc(C(=O)C2=C(Sc3ccccc3)CCCC2=O)c1Cl	–	–	76 to 87
